Data on 12 molecules can be found in patent US20260274814A1, “THIENYL COMPOUNDS FOR THE TREATMENT OF A CENTRAL NERVOUS SYSTEM DISEASE OR DISORDER” (Coreterra Therapeutics, Inc., priority 2023, published 2026).

Where a name gives a salt, the structure may show the parent alone. Read-outs that look alike come from different tables or passages of the source.

The subject of this assay is mice. In words: Neuropharmacological Assay (SmartCube): automated behavioral signature of compound-treated mice compared with a database of reference drug classes. The format is in vivo. The following applies: for minimal effective dose: Mus musculus, ip. In a few lines: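 Probabilities reflect how closely the digitally recorded behavioural signature at 3.0 mg/kg i.p. matched each reference class (antipsychotic, anxiolytic, antidepressant etc.). Dosing occurred 15 min before testing. Minimal effective dose was the dose giving 45% or more total activity.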

Setting [1] is: probability that activity matches this class of agents, 3.0 mg/kg i.p., 15 min before test.
Where [2] appears, read: probability that activity matches this class of agents, 3.0 mg/kg i.p., 15 min before test, hydrochloride, 3 mg/kg.
[3] abbreviates: dose having 45% or more total activity in SmartCube, i.p., if only one dose was tested, that dose is shown, read-out: MED (minimal effective dose).
Where [4] appears, read: minimal effective dose: dose having 45% or more total activity in SmartCube, i.p., if only one dose tested, that dose is shown, read-out: MED.
Where [5] appears, read: SmartCube class probability, 3.0 mg/kg i.p., 15 min before test.
Setting [6] is: SmartCube class probability, 3.0 mg/kg i.p., 15 min before test, hydrochloride, 3 mg/kg.
Where [7] appears, read: minimal effective dose: dose having 45% or more total activity in SmartCube, i.p., if only one dose was tested, that dose is shown, read-out: MED.
Where [8] appears, read: SmartCube probability class, 3.0 mg/kg dose, i.p. 15 min before the behavioral test.
[9] abbreviates: SmartCube probability class, 3.0 mg/kg dose, i.p. 15 min before the behavioral test, hydrochloride, 3 mg/kg.

`CNC1CCc2c(sc(C)c2C)C1` (single isomer, unassigned) [Compound 43, N, 2,3-trimethyl-4,5,6,7-tetrahydrobenzothiophen-6-amine hydrochloride]: the “MED (minimal effective dose)” value (dose having 45% or more total activity in SmartCube, i.p., if only one dose was tested, that dose is shown) worked out at 3.0 mpk. Also, under setting [1], the AD result is listed as “++++ (≥74%)”, the AG result was “ND (^ <4%)”, the AN result was “ND (^ <4%)” and the AP entry is on record as “ND (^ <4%)”. Also, under setting [1], the AX result is given as “ND (^ <4%)”, the CE result was “ND (^ <4%)”, the MS entry was “ND (^ <4%)” and the PS entry is given as “ND (^ <4%)”. For the same molecule, under setting [1], the SH entry is recorded as “ND (^ <4%)” and the UK entry is reported as “ND (^ <4%)”. Besides, under setting [2], the HL entry was “+ (≥4%)”.
As for `c1scc2c1CCC(NC1COC1)C2` (single isomer, unassigned) [Compound 128, N-(4,5,6,7-tetrahydro-2-benzothiophen-5-yl)oxetan-3-amine], under setting [3], the minimal effective dose stood at 10 mg/kg. Further, under setting [1], the AD result is on record as “ND (^ <4%)”, the AG entry is “ND (^ <4%)”, the AN result is listed as “ND (^ <4%)” and the AP result is reported as “ND (^ <4%)”. Also, under setting [1], the AX result is listed as “ND (^ <4%)”, the CE result is “ND (^ <4%)”, the HL entry was “ND (^ <4%)” and the MS result is listed as “ND (^ <4%)”. Besides, under setting [1], the PS entry is given as “ND (^ <4%)”, the SH entry is on record as “ND (^ <4%)” and the UK entry is “+ (≥4%)”.
Take `CNC1CCc2sc(C)cc2C1` (stereo not drawn) [Compound 197, N, 2-dimethyl-4,5,6,7-tetrahydrobenzothiophen-5-amine hydrochloride]: under setting [4], the minimal effective dose is 3 mg/kg. Under setting [5], the AD entry was “ND (^ <4%)”, the AG result was “ND (^ <4%)”, the AN entry was “ND (^ <4%)” and the AP entry is “ND (^ <4%)”. Moreover, under setting [5], the AX entry is listed as “ND (^ <4%)”, the CE entry is given as “ND (^ <4%)”, the HL result is “ND (^ <4%)” and the MS result is listed as “ND (^ <4%)”. In addition, under setting [5], the PS result was “ND (^ <4%)”, the SH result is “ND (^ <4%)” and the UK result is on record as “+++ (≥49%)”.
Take `CNC1CC=Cc2ccsc2C1.Cl` (stereo not drawn) [Compound 24, N-methyl-7,8-dihydro-6H-cyclohepta[b]thiophen-7-amine hydrochloride]: the minimal effective dose under setting [3] was 3 mg/kg. In addition, under setting [1], the AD entry was “ND (^ <4%)”, the AG result is “ND (^ <4%)”, the AN entry is recorded as “ND (^ <4%)” and the AP result is “ND (^ <4%)”. Further, under setting [1], the AX result is on record as “ND (^ <4%)”, the CE result is given as “ND (^ <4%)”, the HL entry is reported as “ND (^ <4%)” and the MS entry is “ND (^ <4%)”. For the same molecule, under setting [1], the PS result is reported as “ND (^ <4%)”, the SH result is given as “+++ (≥49%)” and the UK result is “ND (^ <4%)”.
On to `CNC1CCc2c(Cl)csc2C1` (single isomer, unassigned) [Compound 198, 3-chloro-N-methyl-4,5,6,7-tetrahydrobenzothiophen-6-amine hydrochloride], for which the minimal effective dose under setting [4] was less than 3 mg/kg. Also, under setting [5], the AD entry is “ND (^ <4%)”, the AG entry is recorded as “ND (^ <4%)”, the AN result was “ND (^ <4%)” and the AX result is “ND (^ <4%)”. In addition, under setting [5], the CE entry was “ND (^ <4%)”, the MS entry is reported as “ND (^ <4%)”, the PS result is given as “ND (^ <4%)” and the SH entry is “ND (^ <4%)”. Moreover, the UK entry under setting [5] is given as “ND (^ <4%)”. Moreover, under setting [6], the AP entry is listed as “++++ (≥74%)” and the HL entry was “ND (^ <4%)”.
Consider `CNC1CCc2scc(C3CCC3)c2C1` (single isomer, unassigned) [Compound 267, 3-cyclobutyl-N-methyl-4,5,6,7-tetrahydrobenzothiophen-5-amine hydrochloride], for which the minimal effective dose under setting [4] was more than 3 mg/kg. Also, under setting [5], the AD result was “ND (^ <4%)”, the AG entry was “ND (^ <4%)”, the AN result is “ND (^ <4%)” and the AP entry is on record as “ND (^ <4%)”. Besides, under setting [5], the AX entry is listed as “ND (^ <4%)”, the CE result is reported as “ND (^ <4%)”, the HL entry was “ND (^ <4%)” and the MS entry was “ND (^ <4%)”. Under setting [5], the PS result is “ND (^ <4%)” and the SH result is on record as “ND (^ <4%)”. The UK entry under setting [6] was “+ (≥4%)”.
On to `CNC1CCc2sc(Cl)cc2C1` (single isomer, unassigned) [Compound 152, 2-chloro-N-methyl-4,5,6,7-tetrahydrobenzothiophen-5-amine hydrochloride], for which, under setting [5], the AD entry is reported as “ND (^ <4%)”, the AG entry is “ND (^ <4%)”, the AN result is recorded as “ND (^ <4%)” and the AP entry is “ND (^ <4%)”. Under setting [5], the AX entry is “ND (^ <4%)”, the CE entry is reported as “ND (^ <4%)”, the HL result is listed as “ND (^ <4%)” and the MS result is recorded as “ND (^ <4%)”. Moreover, under setting [5], the PS result was “ND (^ <4%)” and the SH entry is reported as “ND (^ <4%)”. Further, the UK entry under setting [6] is reported as “++ (≥24%)”. This molecule also yielded an MED (minimal effective dose: dose having 45% or more total activity in SmartCube, i.p., if only one dose tested, that dose is shown) of 3 mpk.
Turning to `CNC1Cc2scc(C)c2C1` (single isomer, unassigned) [Compound 316, N, 3-dimethyl-5,6-dihydro-4H-cyclopenta[b]thiophen-5-amine hydrochloride], the minimal effective dose under setting [7] is 3 mg/kg. Besides, under setting [8], the AD result is “ND (^ <4%)”, the AG entry was “ND (^ <4%)”, the AN result is given as “ND (^ <4%)” and the HL result is “ND (^ <4%)”. Under setting [8], the MS entry is recorded as “ND (^ <4%)”, the PS entry was “ND (^ <4%)”, the SH entry is recorded as “ND (^ <4%)” and the UK entry was “ND (^ <4%)”. Besides, under setting [9], the AP result was “++++ (≥74%)”, the AX entry is given as “ND (^ <4%)” and the CE entry was “ND (^ <4%)”.
`NC1COc2c(Cl)csc2C1` (stereo not drawn) [Compound 215, 3-chloro-6,7-dihydro-5H-thieno[3,2-b]pyran-6-amine hydrochloride]: the minimal effective dose under setting [4] was 3 mg/kg. Under setting [5], the AD result is listed as “ND (^ <4%)”, the AG result is on record as “ND (^ <4%)”, the AN entry was “ND (^ <4%)” and the AP result is “+ (≥4%)”. Further, under setting [5], the AX entry is reported as “+++ (≥49%)”, the CE entry is listed as “ND (^ <4%)”, the HL result was “ND (^ <4%)” and the MS result was “ND (^ <4%)”. Further, under setting [5], the PS result is “ND (^ <4%)”, the SH entry is recorded as “ND (^ <4%)” and the UK entry is given as “ND (^ <4%)”.
In the case of `NC1CCc2csc(Cl)c2C1` (stereo not drawn) [Compound 89, 3-chloro-4,5,6,7-tetrahydro-2-benzothiophen-5-amine hydrochloride], the minimal effective dose under setting [3] stood at 3 mg/kg. Under setting [1], the AD entry is listed as “ND (^ <4%)”, the AG result is “ND (^ <4%)”, the AN entry is given as “ND (^ <4%)” and the AP result was “ND (^ <4%)”. Further, under setting [1], the AX entry is “+ (≥4%)”, the CE result is recorded as “ND (^ <4%)”, the HL entry was “ND (^ <4%)” and the MS result is on record as “++ (≥24%)”. For the same molecule, under setting [1], the PS entry is “ND (^ <4%)”, the SH entry is listed as “ND (^ <4%)” and the UK entry was “ND (^ <4%)”.
Turning to `CNC1Cc2scc(C3CC3)c2C1` (single isomer, unassigned) [Compound 320, 3-cyclopropyl-N-methyl-5,6-dihydro-4H-cyclopenta[b]thiophen-5-amine hydrochloride], the minimal effective dose under setting [7] was more than 3 mg/kg. Besides, under setting [8], the AD entry is reported as “ND (^ <4%)”, the AG result is “ND (^ <4%)”, the AN entry is “ND (^ <4%)” and the CE entry was “ND (^ <4%)”. Under setting [8], the HL result was “ND (^ <4%)”, the MS entry is “ND (^ <4%)”, the PS entry is given as “ND (^ <4%)” and the SH entry is “ND (^ <4%)”. Besides, under setting [9], the AP result is “ND (^ <4%)”, the AX result is “ND (^ <4%)” and the UK entry is “++ (≥24%)”.
As to `CNC1(C)CCc2ccsc2C1` (single isomer, unassigned) [Compound 50, N, 6-dimethyl-5,7-dihydro-4H-benzothiophen-6-amine hydrochloride], the “MED (minimal effective dose)” value (dose having 45% or more total activity in SmartCube, i.p., if only one dose was tested, that dose is shown, hydrochloride) stood at 3.0 mpk. For the same molecule, under setting [1], the AG result was “ND (^ <4%)”, the AN result is “ND (^ <4%)”, the AP result was “ND (^ <4%)” and the HL result is on record as “ND (^ <4%)”. Further, under setting [1], the PS result is given as “ND (^ <4%)”, the SH entry is “ND (^ <4%)” and the UK result is “ND (^ <4%)”. Further, under setting [2], the AD result was “+++ (≥49%)”, the AX result is on record as “ND (^ <4%)”, the CE result is “ND (^ <4%)” and the MS entry is recorded as “ND (^ <4%)”.
